Measurements: patent US9983218B2, “Indole and indoline derivatives and methods of use thereof” (AbbVie Inc., priority 2008, dated 2018)

Tested on: SK-N-SH human neuroblastoma cells
Test: Serum deprivation/JC-1 mitochondrial membrane potential (MMP) assay
Type: cell-based
Conditions: Homo sapiens; for Emax: SK-N-SH, percent maximal intensity in JC-1 ratio normalized to 10 μM dimebolin, read-out: JC-1 max %; for EC50: SK-N-SH cells, serum deprivation ~18 hours, JC-1 ratio normalized to peak value for 10 μM dimebolin, single curve fit to mean data of n=2-3, read-out: EC50
Procedure: SK-N-SH human neuroblastoma cells obtained from American Type Culture Collection (Rockville, Md.) were maintained in the log phase of growth in Minimal Essential Media (MEM), 10% heat inactivated fetal calf serum and 100 units/mL antibiotic-antimycotic (AA). Cells were cultured and maintained in a humidified incubator at 37° C. under 5% CO2 and 95% air. Cells were trypsinized (0.25%) and subcultured every 3 days and used from 15-18 passages. All cell culture supplies were obtained from Invitrogen (Carlsbad, Calif.).
SK-N-SH cells were plated 2-3 days in advance at a concentration of 50,000 cells/well onto collagen coated black-walled 96 well plates (Becton-Dickinson, Bedford, Mass.) in a total volume of 200 μL. On day of experimental treatment, the media containing serum was aspirated from each well and rinsed once with MEM/1% AA without serum. The cells then were incubated overnight in 100 μL of MEM/1% AA (no serum) with and without dimebolin or novel chemical entities overnight for ˜18 hours. The following day, JC-1 dye (5,5′,6,6′-tetrachloro-1,1′,3,3′-tetraethylbenzimidazolcarbocyanide) was diluted 1:10 into MEM media according to the JC-1 Mitochondrial Membrane Potential Assay Kit: (Cayman Chemical Company, Ann Arbor, Mich.) and then 10 μL of the JC-1 dye solution was added to each well. The plates were centrifuged for 5 minutes at 400×g at room temperature followed by 35 minute incubation at 37° C. The plates were washed twice with 200[…] μL of provided Assay Buffer followed an addition of 100 μL of Assay Buffer to each well. The plates were read with an excitation and emission of 560 nm and 595 nM for red fluorescence and with an excitation and emission of 485 nm and 535 nM for green fluorescence to determine the final JC-1 value taking the red to green fluorescence ratio. This assay is based on change in mitochondrial membrane potential (MMP) using this lipophilic cationic dye, JC-1, by monitoring the changes in the ratio of red to green fluorescence as the MMP depolarizes. This change in MMP reflects the health of the cell with healthy, viable cells have a high JC-1 ratio and high MMP whereas apoptotic, unhealthy cells have a low JC-1 ratio or low MMP.
For the ability of compounds to reverse the stress due to serum deprivation and increase the JC-1 ratio, the percent maximal intensity in JC-1 ratio was normalized to that induced by the peak value for 10 μM dimebolin and plotted against the compound concentration to calculate EC50 values and to control for plate-to-plate variability. Concentration-response data were analyzed using GraphPad Prism (San Diego, Calif.); the EC50 values were derived from a single curve fit to the mean data of n=2-3, in duplicates.
All compounds were dissolved in dimethyl sulfoxide at 10 mM stock solutions and tested at a concentration that the dimethyl sulfoxide levels never exceeded 1%.

| SMILES | Emax [%] | EC50 [µM] |
| --- | --- | --- |
| Cc1ccc(CCn2c3c(c4cc(-c5ccc(Cl)cc5)ccc42)C2CCC(C3)N2C)cn1 (stereo not drawn) [Example 106, 2-(4-chlorophenyl)-11-methyl-5-[2-(6-methylpyridin-3-yl)ethyl]-5,6,7,8,9,10-hexahydro-7,10-epiminocyclohepta[b]indole] | 238 | 5.73 |
| CN1C2CCC1c1c(n(CCc3ccc(Cl)cc3)c3ccc(-c4ccc(Cl)cc4)cc13)C2 (stereo not drawn) [Example 107, 2-(4-chlorophenyl)-5-[2-(4-chlorophenyl)ethyl]-11-methyl-5,6,7,8,9,10-hexahydro-7,10-epiminocyclohepta[b]indole] | 153 | 4.08 |
| Cc1ccc(CCn2c3c(c4cc(-c5cn[nH]c5)ccc42)C2CCC(C3)N2C)cn1 (stereo not drawn) [Example 112, 11-methyl-5-[2-(6-methylpyridin-3-yl)ethyl]-2-(1H-pyrazol-4-yl)-5,6,7,8,9,10-hexahydro-7,10-epiminocyclohepta[b]indole] | 101 | 3.43 |
| Cc1ccc2c(c1)[C@@H]1[C@H]3CC[C@@H](C[C@@H]1N2CCc1ccc(C)nc1)N3C [Example 113, (5aS,7S,10R,10aR)-2,11-dimethyl-5-[2-(6-methylpyridin-3-yl)ethyl]-5,5a,6,7,8,9,10,10a-octahydro-7,10-epiminocyclohepta[b]indole] | 353 | 2.99 |
| Cc1ccc2c(c1)c1c(n2/C=C/c2ccc(C)nc2)CC2CCCC1N2C (stereo not drawn) [Example 122, 2,12-dimethyl-5-[(E)-2-(6-methylpyridin-3-yl)vinyl]-6,7,8,9,10,11-hexahydro-5H-7,11-epiminocycloocta[b]indole] | 141 | 5.29 |
| Cc1ccc(CCn2c3c(c4cc(OC(F)(F)F)ccc42)C2CCCC(C3)N2)cn1 (stereo not drawn) [Example 140, 5-[2-(6-methylpyridin-3-yl)ethyl]-2-(trifluoromethoxy)-6,7,8,9,10,11-hexahydro-5H-7,11-epiminocycloocta[b]indole] | 194 | 3.32 |
| Cc1ccc2c(c1)c1c(n2/C=C/c2ccc(C)nc2)C2CCN(CC2)C1 [Example 146, 9-methyl-6-[(E)-2-(6-methylpyridin-3-yl)vinyl]-3,4,5,6-tetrahydro-1H-2,5-ethanoazepino[4,3-b]indole] | 264 | 2.84 |
| Cc1ccc2c(c1)c1c(n2/C=C\c2ccc(C)nc2)C2CCN(CC2)C1 [Example 147, 9-methyl-6-[(Z)-2-(6-methylpyridin-3-yl)vinyl]-3,4,5,6-tetrahydro-1H-2,5-ethanoazepino[4,3-b]indole] | 266 | 2.53 |
| Cc1ccc2c(c1)c1c(n2CCc2ccc(C)nn2)C2CCN(CC2)C1 [Example 148, 9-methyl-6-[2-(6-methylpyridazin-3-yl)ethyl]-3,4,5,6-tetrahydro-1H-2,5-ethanoazepino[4,3-b]indole] | 99 | 3.52 |
| Cc1ccc2c(c1)c1c(n2CCc2ccccc2F)C2CCN(CC2)C1 [Example 150, 6-[2-(2-fluorophenyl)ethyl]-9-methyl-3,4,5,6-tetrahydro-1H-2,5-ethanoazepino[4,3-b]indole] | 134 | 3.6 |
| Cc1ccc2c(c1)c1c(n2CCc2ccc(Cl)cc2)C2CCN(CC2)C1 [Example 151, 6-[2-(4-chlorophenyl)ethyl]-9-methyl-3,4,5,6-tetrahydro-1H-2,5-ethanoazepino[4,3-b]indole] | 121 | 5.38 |
| Cc1ccc2c(c1)c1c(n2CCc2cccc(C(F)(F)F)c2)C2CCN(CC2)C1 [Example 152, 9-methyl-6-{2-[3-(trifluoromethyl)phenyl]ethyl}-3,4,5,6-tetrahydro-1H-2,5-ethanoazepino[4,3-b]indole] | 156 | 3.86 |
| CCOC(=O)Cn1c2c(c3cc(C)ccc31)CN1CCC2CC1 [Example 154, ethyl (9-methyl-1,3,4,5-tetrahydro-6H-2,5-ethanoazepino[4,3-b]indol-6-yl)acetate] | 31 | 30 |
| Cc1ccc2c(c1)c1c(n2CC(=O)Nc2ccc(Cl)cc2)C2CCN(CC2)C1 [Example 155, N-(4-chlorophenyl)-2-(9-methyl-1,3,4,5-tetrahydro-6H-2,5-ethanoazepino[4,3-b]indol-6-yl)acetamide] | 63 | 7.53 |
| Cc1ccc(/C=C/n2c3c(c4cc(F)ccc42)CN2CCC3CC2)cn1 [Example 162, 9-fluoro-6-[(E)-2-(6-methylpyridin-3-yl)vinyl]-3,4,5,6-tetrahydro-1H-2,5-ethanoazepino[4,3-b]indole] | 205 | 17 |
| Fc1ccc(CCn2c3c(c4cc(F)ccc42)CN2CCC3CC2)cc1 [Example 163, 9-fluoro-6-[2-(4-fluorophenyl)ethyl]-3,4,5,6-tetrahydro-1H-2,5-ethanoazepino[4,3-b]indole] | 140 | 4.03 |
| Fc1ccc2c(c1)c1c(n2Cc2ccc(Cl)nc2)C2CCN(CC2)C1 [Example 164, 6-[(6-chloropyridin-3-yl)methyl]-9-fluoro-3,4,5,6-tetrahydro-1H-2,5-ethanoazepino[4,3-b]indole] | 197 | 4.95 |
| Fc1ccc2c(c1)c1c(n2Cc2coc(-c3ccccc3)n2)C2CCN(CC2)C1 [Example 173, 9-fluoro-6-[(2-phenyl-1,3-oxazol-4-yl)methyl]-3,4,5,6-tetrahydro-1H-2,5-ethanoazepino[4,3-b]indole] | 120 | 6.15 |
| Clc1ccc(CCn2c3c(c4cc(Br)ccc42)CN2CCC3CC2)cc1 [Example 174, 9-bromo-6-[2-(4-chlorophenyl)ethyl]-3,4,5,6-tetrahydro-1H-2,5-ethanoazepino[4,3-b]indole] | 105 | 5.48 |
| Cc1ccc(CCn2c3c(c4cc(OC(F)(F)F)ccc42)CN2CCC3CC2)cn1 [Example 178, 6-[2-(6-methylpyridin-3-yl)ethyl]-9-(trifluoromethoxy)-3,4,5,6-tetrahydro-1H-2,5-ethanoazepino[4,3-b]indole] | 192 | 4.17 |
| CC1CCC(CCn2c3c(c4cc(OC(F)(F)F)ccc42)CN2CCC3CC2)CN1 (stereo not drawn) [Example 179, 6-[2-(6-methylpiperidin-3-yl)ethyl]-9-(trifluoromethoxy)-3,4,5,6-tetrahydro-1H-2,5-ethanoazepino[4,3-b]indole] | 116 | 5.69 |
| Cc1ccc(/C=C\n2c3c(c4cc(S(C)(=O)=O)ccc42)CN2CCC3CC2)cn1 [Example 181, 6-[(Z)-2-(6-methylpyridin-3-yl)vinyl]-9-(methylsulfonyl)-3,4,5,6-tetrahydro-1H-2,5-ethanoazepino[4,3-b]indole] | 103 | 7.89 |
| Cc1ccc(CCn2c3c(c4cc(S(C)(=O)=O)ccc42)CN2CCC3CC2)cn1 [Example 182, 6-[2-(6-methylpyridin-3-yl)ethyl]-9-(methylsulfonyl)-3,4,5,6-tetrahydro-1H-2,5-ethanoazepino[4,3-b]indole] | 60 | 9.28 |
| Fc1ccc2c(c1)c1c(n2Cc2ccc(C(F)(F)F)nc2)C2CCN(CC2)C1 [Example 183, 9-fluoro-6-{[6-(trifluoromethyl)pyridin-3-yl]methyl}-3,4,5,6-tetrahydro-1H-2,5-ethanoazepino[4,3-b]indole] | 172 | 8.97 |
